Measured values reported in patent US11549123B2, “Plant EPSP synthases and methods of use” (PIONEER HI-BRED INTERNATIONAL, INC., priority 2015, dated 2023).
Numbering of substitutions follows the chain as printed.

Columns and labels:
Type in all cases: biochemical
[1] = target: T1, Zea mays EPSPS variant Zm-A189T (Zea mays, UniProt O24566, A188T); test: Rapid two-rate method for (kcat/KM)*KI, Zm-A189T; details: [E] 0.07 uM, [Gly] 1000 uM
T1 sequence (O24566 with tags, fused parts or gaps A188T): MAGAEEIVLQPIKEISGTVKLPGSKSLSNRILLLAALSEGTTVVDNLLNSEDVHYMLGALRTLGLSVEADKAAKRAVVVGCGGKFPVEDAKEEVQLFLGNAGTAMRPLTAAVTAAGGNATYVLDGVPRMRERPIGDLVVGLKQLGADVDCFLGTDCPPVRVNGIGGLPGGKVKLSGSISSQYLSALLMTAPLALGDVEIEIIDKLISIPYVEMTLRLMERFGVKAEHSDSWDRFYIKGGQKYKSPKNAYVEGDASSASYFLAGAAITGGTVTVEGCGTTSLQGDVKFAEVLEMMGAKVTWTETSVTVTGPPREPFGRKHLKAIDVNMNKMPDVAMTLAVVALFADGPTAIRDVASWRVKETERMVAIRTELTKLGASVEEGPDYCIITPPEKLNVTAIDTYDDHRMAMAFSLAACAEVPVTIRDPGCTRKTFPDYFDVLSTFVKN
Description: There are several practical considerations for accurately estimating (kcat/KM)*KI with the rapid method. […] 2) The inhibitor concentration must be adjusted so as to obtain a degree of inhibition that minimally amplifies the error in the term v0-vi in Equation 3. If inhibition is too little, v0-vi will be small, and the error in the multiplier vi×v0/(v0-vi) will be large. […] 3) Substrate concentration should be set at the approximate KM of the parental variant(s), subject to the sensitivity of the assay. High substrate concentration obscures sensitivity to the inhibitor and reduces stringency for capturing improvements in KM. Depending on the necessity for speed, there exists opportunity for customizing enzyme and inhibitor concentrations. […] The rapid method was repeated for those and obtained data that correlated better with data obtained by substrate saturation analysis. For screening purposes however, that correlation step is not necessary. Conditions can be set so that variants with a pre-determined minimal fitness level are accurately quantified.
In Table 15, parameters above the heavy line for the rapid method were obtained under standard conditions. For variants shown below the heavy line, the rapid analysis was repeated with enzyme or glyphosate concentrations adjusted as needed to generate sufficient signal within the limits for linear initial rates.

[2] = target: T2, Zea mays EPSPS variant Zm-H6 (868-H6) with A69V (H6-A69V) (Zea mays, UniProt O24566, A1R/A3W/A415G/A68V/A71Q/D401G/E301S/E390G/G101A/I207L/K83R/L97C/T278A/T360S/T440Q/V437R); test: Substrate saturation kinetic analysis with glyphosate, H6-A69V
T2 sequence (O24566 with tags, fused parts or gaps A1R/A3W/A68V/A71Q/K83R/L97C/G101A/I207L/T278A/E301S/T360S/E390G/D401G/A415G/V437R/T440Q): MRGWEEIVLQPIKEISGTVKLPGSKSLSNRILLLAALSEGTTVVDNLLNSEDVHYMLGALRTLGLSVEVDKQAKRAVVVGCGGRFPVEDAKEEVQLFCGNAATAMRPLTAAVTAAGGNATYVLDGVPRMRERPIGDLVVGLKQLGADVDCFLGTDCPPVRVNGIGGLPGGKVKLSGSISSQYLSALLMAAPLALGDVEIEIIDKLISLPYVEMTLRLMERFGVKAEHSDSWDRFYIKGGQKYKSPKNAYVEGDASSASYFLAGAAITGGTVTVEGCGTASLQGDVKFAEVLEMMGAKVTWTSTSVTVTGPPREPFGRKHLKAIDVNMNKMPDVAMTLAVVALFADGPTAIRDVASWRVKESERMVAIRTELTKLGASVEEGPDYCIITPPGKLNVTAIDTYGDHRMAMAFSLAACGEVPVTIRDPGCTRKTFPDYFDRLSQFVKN

[3] = target: T3, Zea mays EPSPS variant Zm-T103I (Zea mays, UniProt O24566, T102I); test: Substrate saturation kinetic analysis with glyphosate, Zm-T103I
T3 construct: native maize plus T103I; E. coli BL21(DE3), Ni-NTA purified
T3 sequence (O24566 with tags, fused parts or gaps T102I): T1 sequence (O24566 with tags, fused parts or gaps A188T) with T103I, T189A

[4] = target: T4, Zea mays EPSPS variant Zm-H6 (868-H6) with A36G (H6-A36G) (Zea mays, UniProt O24566, A1R/A35G/A3W/A415G/A71Q/D401G/E301S/E390G/G101A/I207L/K83R/L97C/T278A/T360S/T440Q/V437R); test: Substrate saturation kinetic analysis with glyphosate, H6-A36G
T4 sequence (O24566 with tags, fused parts or gaps A1R/A3W/A35G/A71Q/K83R/L97C/G101A/I207L/T278A/E301S/T360S/E390G/D401G/A415G/V437R/T440Q): T2 sequence (O24566 with tags, fused parts or gaps A1R/A3W/A68V/A71Q/K83R/L97C/G101A/I207L/T278A/E301S/T360S/E390G/D401G/A415G/V437R/T440Q) with A36G, V69A

[5] = target: Zea mays EPSPS variant 4R (Zea mays, UniProt O24566, A3R); test: EPSPS reaction rate with or without 10 uM glyphosate, 4R; details: pH 7; read-out: Reaction rate with 10 μM glyph, % no glyph; further: 50 µM PEP and S3P
Chain of Zea mays EPSPS variant 4R (O24566 entry or part of it A3R): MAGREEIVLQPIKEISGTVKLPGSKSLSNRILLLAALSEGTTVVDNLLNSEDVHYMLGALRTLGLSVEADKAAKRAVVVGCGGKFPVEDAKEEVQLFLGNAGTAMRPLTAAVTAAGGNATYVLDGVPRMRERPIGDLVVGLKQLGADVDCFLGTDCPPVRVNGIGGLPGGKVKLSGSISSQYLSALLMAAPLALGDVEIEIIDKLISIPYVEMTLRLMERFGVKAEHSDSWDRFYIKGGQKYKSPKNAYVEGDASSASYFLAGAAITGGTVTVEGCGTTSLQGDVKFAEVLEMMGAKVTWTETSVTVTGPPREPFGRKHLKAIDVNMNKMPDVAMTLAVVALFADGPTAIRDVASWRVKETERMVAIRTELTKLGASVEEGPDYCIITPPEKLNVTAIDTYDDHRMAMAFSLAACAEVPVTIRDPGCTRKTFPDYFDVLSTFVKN

## O=C(O)CNCP(=O)(O)O [glyphosate, N-phosphonomethylglycine]
[1]
  (kcat/KM)*KI: 431
[2]
  Ki: 320 µM
[2]; substrate saturation, H6-A69V
  (kcat/KM)*KI: 2440
[3]
  Ki: 53 µM
[3]; substrate saturation, Zm-T103I
  (kcat/KM)*KI: 99
[4]
  Ki: 454 µM
[4]; substrate saturation, H6-A36G
  (kcat/KM)*KI: 3630
[5]
  activity at 10 µM: 7.38%
